According to article PMC5647378, “Structural and Mechanistic Analysis of Drosophila melanogaster Agmatine N-Acetyltransferase, an Enzyme that Catalyzes the Formation of N-Acetylagmatine” (Scientific Reports, 2017):
Read-outs that look alike come from different tables or passages of the source.

Assays:
[1] = biological target: T1, Drosophila melanogaster AgmNAT (CG15766), wild-type (Drosophila melanogaster, UniProt Q9W469); experiment: AgmNAT steady-state kinetics, coenzyme A release with Ellman's reagent (DTNB); format: biochemical; details: for kcat,app / Km: 300 mM Tris-HCl pH 8.5, 150 µM DTNB
Procedure: Steady-state kinetic constants for AgmNAT were determined by measuring the rate of coenzyme A release using Ellman’s reagent (DTNB) at 412 nm (molar absorptivity = 13,600 M^−1 cm^−1)[15]–[17]. […] Initial velocities were measured using a Cary 300 Bio UV-Visible spectrophotometer at 22 °C. Acyl-CoA kinetic constants were evaluated by holding the concentration of agmatine at a constant saturating concentration (5 mM). […] The apparent kinetic constants were determined by fitting the resulting data to equation 1 using SigmaPlot 12.0, where vo is the initial velocity, Vmax,app is the apparent maximal velocity, [S] is the substrate concentration, and Km,app is the apparent Michaelis constant. Each assay was performed in triplicate and the uncertainty for the kcat,app and (kcat/Km)app values were calculated using equation 2, where σ is the standard error.1 vo=Vmax,app[S]/Km,app+[S] 2 σ(x/y)=x/y(σx/x)^2+(σy/y)^2

[2] = biological target: T1, Drosophila melanogaster AgmNAT (CG15766), wild-type; experiment: AgmNAT dead-end and product inhibition analysis; format: biochemical
Procedure: Initial velocities were determined by varying the concentration of one substrate, while holding the other substrate at a fixed concentration. […] The resulting initial velocity data was fit to equation 3 for an ordered Bi-Bi mechanism and equation 4 for a ping pong mechanism using IGOR Pro 6.34 A, where vo is the initial velocity, Vmax is the maximal velocity, Kia is the dissociation constant for substrate A, Kb is the Michaelis constant for substrate B, Ka is the Michaelis constant for substrate A, [A] is the concentration of substrate A, and [B] is the concentration of substrate B.3 vo=Vmax[A][B]/KiaKb+Ka[B]+Kb[A]+[A][B] 4 vo=Vmax[A][B]/Ka[B]+Kb[A]+[A][B]
Inhibition experiments by either substrate analogs or N-acetylagamatine were used to discriminate between an ordered, random sequential, or ping pong kinetic mechanism. […] Initial velocity patterns were generated by varying the concentration of one substrate, holding the other substrate concentration at its apparent Km, and changing the concentration of inhibitor for each data set in triplicate. The resulting data was fit to equations 5–7, for competitive, noncompetitive, and uncompetitive inhibition respectively using SigmaPlot 12.0. For […], vo is the initial velocity, Vmax,app is the apparent maximal velocity, Km,app is the apparent Michaelis constant, [S] is the substrate concentration, [I] is the inhibitor concentration, and Ki is the inhibition constant.5 vo=Vmax,app[S]/Km,app(1+[I]/Ki)+[S] 6 vo=Vmax,app[S]/Km,app(1+[I]/Ki)+[S](1+[I]/Ki) 7 vo=Vmax,app[S]/Km,app+[S](1+[I]/Ki)

[3] = amine varied, 500 μM acetyl-CoA
[4] = amine varied, 500 μM acetyl-CoA, read-out: Km, app
[5] = acyl-CoA varied, 5 mM agmatine, read-out: Km,app

T1 sequence (Q9W469 entry or part of it): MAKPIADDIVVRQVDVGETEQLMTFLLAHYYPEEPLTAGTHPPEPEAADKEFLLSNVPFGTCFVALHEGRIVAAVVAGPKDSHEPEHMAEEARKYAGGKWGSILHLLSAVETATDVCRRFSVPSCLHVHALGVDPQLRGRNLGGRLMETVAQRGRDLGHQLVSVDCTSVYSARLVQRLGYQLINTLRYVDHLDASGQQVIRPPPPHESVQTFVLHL

## NCCCNCCCCNCCCN [Spermine]
[1]; acetyl-CoA as co-substrate
  (kcat/Km)app,agmatine/(kcat/Km)app,polyamine ratio: 15
[1]; [3]
  kcat,app: 77 ± 7 s⁻¹
[1]; [4]
  Km: 18 ± 3 mM

## CCCCCCCC(=O)SCCNC(=O)CCNC(=O)[C@H](O)C(C)(C)COP(=O)(O)OP(=O)(O)OC[C@H]1O[C@@H](n2cnc3c(N)ncnc32)[C@H](O)[C@@H]1OP(=O)(O)O [Octanoyl-CoA]
[1]; acyl-CoA varied, 5 mM agmatine
  kcat,app: 0.61 ± 0.02 s⁻¹
[1]; [5]
  Km: 0.14 mM

## CCCCCCCCCC(=O)SCCNC(=O)CCNC(=O)[C@H](O)C(C)(C)COP(=O)(O)OP(=O)(O)OC[C@H]1O[C@@H](n2cnc3c(N)ncnc32)[C@H](O)[C@@H]1OP(=O)(O)O [Decanoyl-CoA]
[1]; acyl-CoA varied, 5 mM agmatine
  kcat,app: 0.16 ± 0.01 s⁻¹
[1]; [5]
  Km: 0.07 mM
[1]; agmatine as saturating amine substrate
  decrease in kcat,app from acetyl-CoA to decanoyl-CoA: ~ 150 fold

## N=C(N)NCCC[C@H](N)C(=O)O [arginine]
[1]; amine substrate screen with acetyl-CoA
  acceptance as amine substrate: not AgmNAT substrates

## CC(=O)NCCCCNCCCN [N ^8-acetylspermidine]
[1]; acetyl-CoA as co-substrate
  difference in Km,app relative to spermidine: ~ 2 fold
  increase in kcat,app compared to spermidine: ~ 25 fold
[1]; [3]
  kcat,app: 32 ± 2 s⁻¹
[1]; [4]
  Km: 9.1 ± 1 mM

## NCCCCN [Putrescine]
[1]; [3]
  kcat,app: 7.7 ± 0.3 s⁻¹
[1]; [4]
  Km: 51 ± 3 mM

## NC(N)=NCCCCN=C(N)N [Arcaine]
[2]; varied substrate acetyl-CoA, constant agmatine (0.3 mM), read-out: Ki,i
  Ki: 34 ± 1 µM
[2]; varied substrate agmatine, constant acetyl-CoA (0.1 mM; 104 µM), read-out: Ki,s
  Ki: 28 ± 1 µM
[2]; versus acetyl-CoA
  type of inhibition plot (in words): uncompetitive
[2]; versus agmatine
  type of inhibition plot (in words): competitive

## CCCC(=O)SCCNC(=O)CCNC(=O)[C@H](O)C(C)(C)COP(=O)(O)OP(=O)(O)OC[C@H]1O[C@@H](n2cnc3c(N)ncnc32)[C@H](O)[C@@H]1OP(=O)(O)O [Butyryl-CoA]
[1]; acyl-CoA varied, 5 mM agmatine
  kcat,app: 3.3 ± 0.1 s⁻¹
[1]; [5]
  Km: 0.04 mM

## NCCCCCN [Cadaverine]
[1]; acetyl-CoA as co-substrate
  (kcat/Km)app,agmatine/(kcat/Km)app,polyamine ratio: 1900
